Data on 1 compound can be found in patent publication US10889553B2, “Asymmetric triazole benzamide derivatives and the compositions and methods of treatment regarding the same” (NysnoBio Ireland DAC, priority 2017, dated 2021).

In one series the target is CYP2D6 (Homo sapiens, UniProt P10635). Put plainly: CYP inhibition assay. It counts as in vitro ADME. Conditions: read-out: % Inhibition at 30 μM CYP 2D6.
Series [1] concerns S-HeLa stably expressing a YFP-Parkin fusion protein. Put plainly: Mitophagy cellular assay. In kind it is cell-based. Conditions: YFP-Parkin HeLa cells, compound with 6 μM CCCP, Tomm20 negative cells (FIG. 4). As for the experimental part:
The mitophagy cellular assay was performed as follows:
S-HeLa stably expressing a YFP-Parkin fusion protein were utilised in high content screening assays to assess Parkin-dependent endpoints. 4000 cells were seeded in each well of a 96 well plate (Perkin Elmer ViewPlate-96 F TC, cat. N. 6005182) and left to grow for 24 hours. Cells were then incubated with vehicle (DMSO) or increasing concentrations of compound (1, 2.5, 5, 10 μM) for 1 hour prior to adding 6 μM carbonyl cyanide m-chlorophenyl hydrazone (CCCP), each condition run in replicate of three. After 20 hours, the cells were processed for immunofluorescence.
Samples were fixed in 4% PFA for 25 minutes RT and permeabilized with PBS 0.1% Triton-X100 for 3 minutes on ice, blocked with PBS 3% BSA, 0.3% Triton-X100 for 2 hours RT, followed by overnight incubation with primary antibody at 4° C. […] 18 images were acquired for each well using the following combination of excitation/emission filters: Hoechst33342 was excited through a 350/50 nm band pass filter and fluorescence intensity was collected through a 460/30 band pass filter. YFP was excited through a 500/20 nm band pass filter and fluorescence intensity was collected through a 540/35 band pass filter. DyLight 649 was excited through a 640/30 nm band pass filter and fluorescence intensity was collected through 700/75 band pass filter. […]

CYP2D6, sequence (P10635 whole entry, the tested form may be a part): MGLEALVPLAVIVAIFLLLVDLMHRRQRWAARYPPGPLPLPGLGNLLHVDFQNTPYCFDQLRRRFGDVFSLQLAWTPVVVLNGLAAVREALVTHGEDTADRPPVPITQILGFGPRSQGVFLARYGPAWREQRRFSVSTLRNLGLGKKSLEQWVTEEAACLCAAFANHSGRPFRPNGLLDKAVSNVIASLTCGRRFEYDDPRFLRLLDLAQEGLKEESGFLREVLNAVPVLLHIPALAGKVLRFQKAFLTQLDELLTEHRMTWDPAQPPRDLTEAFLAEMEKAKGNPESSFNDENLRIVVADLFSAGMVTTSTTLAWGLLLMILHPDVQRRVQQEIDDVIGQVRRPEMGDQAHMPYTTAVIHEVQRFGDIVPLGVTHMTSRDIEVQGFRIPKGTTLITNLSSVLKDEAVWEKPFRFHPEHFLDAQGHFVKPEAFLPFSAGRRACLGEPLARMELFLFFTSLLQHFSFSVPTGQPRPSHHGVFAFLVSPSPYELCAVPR

The term inhibition denotes the percentage by which the read-out fell short of the control. Regarding `Cc1ccccc1C(=O)Nc1nc(NC(=O)c2ccccc2C)n(-c2ccc(OC(F)(F)F)cc2)n1` [Compound 42, N,N′-(1-(4-(trifluoromethoxy)phenyl)-1H-1,2,4-triazole-3,5-diyl)bis(2-methylbenzamide)], at CYP2D6, the inhibition at 30 μM was found to be 6.87%. Also, the “mitophagy / removal of damaged mitochondria” value in series [1] is “increases removal of damaged mictochondria”.
